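Following 48 hours of exposure in 96-well plates, responses at five concentrations were used to interpolate endpoints linearly. Here, GI50 denotes the concentration required for 50% inhibition of growth. TGI denotes the concentration required for complete inhibition of growth.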
How the values were obtained:
Assay in all cases: NCI anticancer screen, dose series, 48 h
ACHN renal = system: ACHN renal
CCRF-CEM leukemia = system: CCRF-CEM leukemia
HT29 colon = system: HT29 colon
OVCAR-4 ovarian = system: OVCAR-4 ovarian
OVCAR-5 ovarian = system: OVCAR-5 ovarian
OVCAR-8 ovarian = system: OVCAR-8 ovarian
SF-295 CNS = system: SF-295 CNS
SNB-75 CNS = system: SNB-75 CNS
U251 CNS = system: U251 CNS
UACC-257 melanoma = system: UACC-257 melanoma

Row | Compound | GI50 (ACHN renal) | TGI (ACHN renal) | GI50 (CCRF-CEM leukemia) | TGI (CCRF-CEM leukemia) | GI50 (HT29 colon) | TGI (HT29 colon) | GI50 (OVCAR-4 ovarian) | TGI (OVCAR-4 ovarian) | GI50 (OVCAR-5 ovarian) | TGI (OVCAR-5 ovarian) | GI50 (OVCAR-8 ovarian) | TGI (OVCAR-8 ovarian) | GI50 (SF-295 CNS) | TGI (SF-295 CNS) | GI50 (SNB-75 CNS) | TGI (SNB-75 CNS) | GI50 (U251 CNS) | TGI (U251 CNS) | GI50 (UACC-257 melanoma) | TGI (UACC-257 melanoma)
1 | COc1cc2nc(-c3ccc(C(F)(F)F)cc3)cc(OCCCN3CCC(O)CC3)c2cc1OC | 3.18 µM | 16.7 µM | 3.27 µM | 17.7 µM | 0.486 µM | 10.4 µM | 9.14 µM | 22 µM | 3.14 µM | 20.7 µM | 1.66 µM | 22.2 µM | 1.61 µM | 3.83 µM | 2.58 µM | 10.8 µM | 2.12 µM | 20.6 µM | 2.28 µM | 6.5 µM
2 | Cc1ccc(-c2nnc(-c3ccc4ccccc4c3)o2)cc1 |  | > 100 µM |  | > 25 µM |  | > 100 µM |  | > 100 µM |  | > 100 µM |  | > 100 µM |  | > 100 µM |  | 82.7 µM |  | > 100 µM |  | > 100 µM
3 | CN(CC(=O)O)S(=O)(=O)c1ccc2ccccc2c1 |  | > 100 µM |  | > 100 µM |  | > 100 µM |  | > 100 µM |  | > 100 µM |  | > 100 µM |  | > 100 µM |  | > 100 µM |  | > 100 µM |  | > 100 µM
4 | COc1ccc(-c2cc(-c3ccc(Nc4nc(Nc5ccccc5)nc(Nc5ccc(Cl)cc5)n4)cc3)nc(N)c2C#N)cc1 | 0.885 µM | 1.77 µM | 1.7 µM | > 50 µM | 1.1 µM | 2.96 µM | 1.06 µM | 3.2 µM | 1.13 µM | 2.86 µM | 1.81 µM | > 50 µM | 1.54 µM | 7.28 µM | 0.737 µM | 2.71 µM | 1.23 µM | 3.68 µM | 1.25 µM | 3.15 µM
5 | COc1cc2c(c(OC)c1O)C(=O)C(OC)C(c1ccc(O)c(O)c1)O2 (centres undefined) | 0.662 µM | > 100 µM | 0.428 µM | > 31 µM | 6.1 µM | > 67.7 µM | > 100 µM | > 100 µM | 2.27 µM | > 100 µM | 0.484 µM | > 100 µM | 0.471 µM | 4.95 µM | 0.0405 µM | > 79.3 µM | 0.418 µM | > 100 µM | > 100 µM | > 100 µM
6 | NC(CSC(c1ccccc1)(c1ccccc1)c1ccc2c(c1)OCO2)C(=O)O (centres undefined) | 4.06 µM | > 100 µM | 0.306 µM | > 41.5 µM | 1.81 µM | > 44.5 µM | 7.81 µM | > 81.6 µM | 7.22 µM | > 100 µM | 0.595 µM | > 100 µM | 0.352 µM | > 48.4 µM | 0.283 µM | 7.06 µM | 0.405 µM | > 74.5 µM | 2.52 µM | > 100 µM
7 | CSc1ccccc1C#C/C=C\C#Cc1ccccc1N1CCCC1=O | > 22.9 µM | > 50 µM |  | > 50 µM | > 10.4 µM | > 50 µM | > 22.1 µM | > 50 µM | > 24.2 µM | > 50 µM | > 13.1 µM | > 50 µM | > 50 µM | > 50 µM | > 10.8 µM | > 50 µM | > 11 µM | > 50 µM | > 12.5 µM | > 50 µM
8 | O=C(CN1CCN(c2cc3c(cc2F)c(=O)c(C(=O)N/N=C/c2ccccc2O)cn3C2CC2)CC1)N/N=C\c1ccccc1O | 0.351 µM | > 100 µM | 0.167 µM | > 100 µM | 1.01 µM | > 100 µM | 0.204 µM | > 100 µM | 1.62 µM | > 100 µM | 0.417 µM | > 100 µM | 0.931 µM | > 100 µM | 1.11 µM | > 100 µM | 0.367 µM | > 100 µM | 0.912 µM | > 100 µM
9 | CC(=O)C(CN(C(C)C)C(C)C)C(c1ccccc1)c1c(O)c2ccccc2oc1=O (centres undefined) |  | > 100 µM |  | > 100 µM |  | > 100 µM |  | > 100 µM |  | > 100 µM |  | > 100 µM |  | > 100 µM |  | > 100 µM |  | > 100 µM |  | > 100 µM
